The results in this text go back to patent US10500207B2, “Compounds for the treatment of diseases associated with amyloid or amyloid-like proteins” (AC Immune SA, priority 2010, dated 2019).

In the experiment the target is Aβ1-42 peptide (Homo sapiens, UniProt P05067). The experiment can be described thus: Thioflavin T spectrofluorescence assay (ThT-assay): inhibition of Aβ1-42 aggregation (% inhibition at 330 μM; IC50 from dilution series). The note with it: for inhibition at 330 µM: 24 h, read-out: Inhibition at 330 μM [%], ThT assay; for inhibition at 330 µM / Inhibition at 330 μM [%]: 330 μM small molecule, 33 μM Aβ1-42 (10:1), 24 hrs at 37° C., mean ± standard deviation of two independent experiments; for IC50 / Inhibition at 330 μM [%]: ThT assay; for IC50: dilution series 330 μM to 0.08 μM.
Aβ1-42 peptide, sequence (P05067 672-713 limits assumed): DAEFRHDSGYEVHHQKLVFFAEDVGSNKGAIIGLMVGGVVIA

Description: Aβ1-42 lyophilized powder (Bachem) was reconstituted in hexafluoroisopropanol (HFIP) to 1 mM. The peptide solution was sonicated for 15 min at room temperature, agitated overnight, and aliquots were made into non-siliconized microcentrifuge tubes. The HFIP was then evaporated under a stream of argon. The resulting peptide film was dried under vacuum for 10 min, tightly sealed and stored at −80° C. until used.
A positive control without a small molecule was prepared to measure maximum RFU. A negative control without Aβ1-42 was prepared for each small molecule. […] The solutions were then incubated for 24 hrs at 37° C., and the spectrofluorescence (relative fluorescence units; RFU) were read in six replicates in black 384-well assay plates (Perkin-Elmer) on a Perkin-Elmer FluoroCount spectrofluorometer. The inhibition of aggregation is expressed as mean % inhibition±1 standard deviation (SD) according to the following equation:
Racemic compounds and their enantiomers were tested for their ability to inhibit amyloid peptide aggregation using the ThT assay. To determine the IC50, the following dilutions of the compounds were used in the ThT assay described above:

As usually defined, the inhibition is the share of the control response that was lost under treatment. One may read the IC50 as the concentration needed to halve the response being measured. For `CNC1CCc2c(c3ccc(Nc4ccc(F)c(F)c4)nc3n2C)C1` (racemic) [Example 26, N^2-(3,4-difluorophenyl)-N^8,9-dimethyl-6,7,8,9-tetrahydro-5H-pyrido[2,3-b]indole-2,6-diamine hydrogenchloride], the inhibition at 330 µM is 93.4 ± 3.9%. Where the note is “IC50 μM 1st assay, 1st assay”, the IC50 was found to be 12.2 µM. In addition, the midpoint of inhibition (IC50 μM 2nd assay, 2nd assay), the IC50, lay at 16.8 µM.
The like results for `CNC1CCc2c(c3ccc(Nc4ccc(N5CCOCC5)cc4)nc3n2C)C1` (racemic) [Example 42] were, in that order, 96.2 ± 2.8%, 63 µM and 112 µM.
Turning to `CNC1CCc2c(c3ccc(Nc4ccc5c(c4)OCCO5)nc3n2C)C1` (racemic) [Example 156], the inhibition at 330 µM is 85.1 ± 0.8%. This molecule also returned a 50% inhibitory concentration (IC50) (IC50 μM 1st assay, 1st assay) of 39.7 µM. This molecule also registered an IC50 (IC50 μM 2nd assay, 2nd assay) of 26.7 µM.
`CNC1CCc2c(c3ccc(Nc4ccc(F)c(F)c4)nc3n2C)C1` (single isomer, unassigned) [Example 214a] came in with an IC50 (IC50 μM 1st assay, 1st assay) of 35.4 µM and an IC50 (IC50 μM 2nd assay, 2nd assay) of 33.5 µM.
The like results for `CNC1CCc2c(c3ccc(Nc4ccc(F)c(F)c4)nc3n2C)C1` (single isomer, unassigned) [Example 214b] were, in that order, 13.4 µM and 7.7 µM.
Taken in the same sequence, the figures for `CNC1CCc2c(c3ccc(Nc4ccc(N5CCOCC5)cc4)nc3n2C)C1` (single isomer, unassigned) [Example 216a] were 99.3 µM and 54.9 µM.
Taken in the same sequence, the figures for `CNC1CCc2c(c3ccc(Nc4ccc(N5CCOCC5)cc4)nc3n2C)C1` (single isomer, unassigned) [Example 216b] were 45 µM and 34.5 µM.
Turning to `CNC1CCc2c(c3ccc(Nc4ccc5c(c4)OCCO5)nc3n2C)C1` (single isomer, unassigned) [Example 217a], the IC50 (IC50 μM 1st assay, 1st assay) was 28 µM and the IC50 (IC50 μM 2nd assay, 2nd assay) turned out to be 23.6 µM.
Take `CNC1CCc2c(c3ccc(Nc4ccc5c(c4)OCCO5)nc3n2C)C1` (single isomer, unassigned) [Example 217b]: the IC50 amounted to 6.6 µM (IC50 μM 1st assay, 1st assay) and 5.9 µM (IC50 μM 2nd assay, 2nd assay).
Turning to `c1ccc(CCNc2ccc3cc[nH]c3n2)nc1` [Example 1], the inhibition at 330 µM is 69.5 ± 4.5%.
The same measure, in the same setting: as for `c1ccc(CNc2ccc3cc[nH]c3n2)nc1` [Example 2], the figure is 47.4 ± 8.9%; as for `Fc1ccc(Nc2ccc3cc[nH]c3n2)cc1F` [Example 3], 56.6 ± 23%.
Still for that read-out and setting: as for `FC(F)(F)c1ccc(Nc2ccc3cc[nH]c3n2)cn1` [Example 4], the figure is 53.5 ± 0.4%.
Turning to `CN(C)C(=O)c1ccc(Nc2ccc3cc[nH]c3n2)cc1` [Example 5], the “Inhibition at 330 μM [%]” value was “no inhibition”.
Turning to `Fc1cc(F)cc(Nc2ccc3cc[nH]c3n2)c1` [Example 6], the inhibition at 330 µM was 60.1 ± 3.5%.
On to `CN(C)C(=O)c1cccc(Nc2ccc3cc[nH]c3n2)c1` [Example 7], for which the “Inhibition at 330 μM [%]” value was “no inhibition”.
Turning to `c1cc2ccc(Nc3ccc4cc[nH]c4n3)nc2[nH]1` [Example 8], the inhibition at 330 µM was 74.7 ± 6.8%.
With `c1ccc(Nc2ccc3cc[nH]c3n2)nc1` [Example 9], the inhibition at 330 µM stood at 70.8 ± 9.2%.
Same read-out and setting: then `Fc1ccc(Nc2ccc3cc[nH]c3n2)cc1` [Example 10], with 62.7 ± 4%.
Still for that read-out and setting: as for `c1cc2cc(Nc3ccc4cc[nH]c4n3)cnc2[nH]1` [Example 11], the figure is 86.2 ± 8.6%; as for `c1cc2ccc(Nc3ccc4cc[nH]c4n3)cc2[nH]1` [Example 12], 75.3 ± 14.5%.
Same read-out and setting: then `c1cc2ncc(Nc3ccc4cc[nH]c4n3)cc2[nH]1` [Example 13], with 97.8 ± 1.8%; and `N#Cc1c[nH]c2nc(Nc3ccc(F)cc3)ccc12` [Example 15], with 58.6 ± 9.5%; and `c1cc2cc(Nc3ccc4cc[nH]c4c3)ccc2[nH]1` [Example 16], with 93.7 ± 2.1%.
With `c1cc2ccc(Nc3ccc4cc[nH]c4c3)cc2[nH]1` [Example 17], the inhibition at 330 µM came to 96.3%.
Still for that read-out and setting: then `c1cc2cc(Nc3ccc4cc[nH]c4n3)ccc2[nH]1` [Example 18], with 97 ± 1.2%; and `CN1CCC(c2c[nH]c3cc(Nc4cccc(N5CCOCC5)c4)ccc23)CC1` [Example 20], with 92.8 ± 0.1%.
In the case of `CN1CCC(c2c[nH]c3ccc(Nc4ccc(F)c(F)c4)cc23)CC1` [Example 21], the inhibition at 330 µM is 74 ± 2.7%.
For the molecule `CN1CCC(c2c[nH]c3cc(Nc4ccc(F)c(F)c4)ccc23)CC1` [Example 22], the inhibition at 330 µM came out at 84.5 ± 6.8%.
On the same count and under the same terms, then `CN1CCC(c2c[nH]c3cc(N4CCc5ccccc5C4)ccc23)CC1` [Example 23], with 97.8 ± 1.5%.
As to `CNC1CCc2[nH]c3nc(Nc4ccc(F)c(F)c4)ccc3c2C1` (stereo not drawn) [Example 24], the inhibition at 330 µM was determined as 77.4 ± 15.6%.
The same measure, in the same setting: as for `CNC1CCc2[nH]c3nc(Nc4ccc(C(F)(F)F)nc4)ccc3c2C1` (stereo not drawn) [Example 25], the figure is 63.4 ± 9%.
For `CNC1CCc2[nH]c3nc(Nc4cc(F)c(F)cc4F)ccc3c2C1` (stereo not drawn) [Example 27], the inhibition at 330 µM amounted to 86.7 ± 0.8%.
On the same count and under the same terms, as for `CNC1CCc2c(c3ccc(Nc4cc(F)c(F)cc4F)nc3n2C)C1` (stereo not drawn) [Example 28], the figure is 91.4 ± 2.9%; as for `CNC1CCc2c(c3ccc(Nc4cc(F)cc(F)c4)nc3n2C)C1` (stereo not drawn) [Example 29], 85.4 ± 0.4%.
With `CNC1CCc2c(c3ccc(Nc4cc(F)c(F)c(F)c4)nc3n2C)C1` (stereo not drawn) [Example 30], the inhibition at 330 µM turned out to be 84.3 ± 3.1%.
For the molecule `CNC1CCc2[nH]c3nc(Nc4ccc5c(C6CCNCC6)c[nH]c5c4)ccc3c2C1` (stereo not drawn) [Example 31], the inhibition at 330 µM came out at 96.5 ± 0.6%.
Consider `COC(=O)c1c[nH]c2nc(Nc3ccc4c(C5CCNCC5)c[nH]c4c3)ccc12` [Example 32], for which the inhibition at 330 µM is 94.7 ± 1%.
On the same count and under the same terms, as for `N#Cc1c[nH]c2nc(Nc3cnc4c(C5CCNCC5)c[nH]c4c3)ccc12` [Example 34], the figure is 79.2 ± 16.2%.
The same measure, in the same setting: then `c1nc2c(C3CCNCC3)c[nH]c2cc1Nc1ccc2c3c([nH]c2n1)CCCC3` [Example 35], with 97.7 ± 0.3%.
With `c1cc2c(C3CCNCC3)c[nH]c2cc1Nc1ccc2[nH]cc(C3CCNCC3)c2c1` [Example 36], the inhibition at 330 µM came out at 98.2 ± 0.3%.
The same measure, in the same setting: as for `FC1(CNc2ccc3c(C4CCNCC4)c[nH]c3n2)CCNCC1` [Example 37], the figure is 47.4 ± 5.2%.
As for `Cn1cc(C2CCNCC2)c2ccc(Nc3ccc(F)c(F)c3)cc21` [Example 38], the inhibition at 330 µM amounted to 90.9 ± 2.7%.
On the same count and under the same terms, as for `c1cc2c(cc1Nc1ccc3c(C4CCNCC4)c[nH]c3n1)CCC2` [Example 40], the figure is 94.8 ± 1%.
On the same count and under the same terms, as for `c1cc2c(cc1Nc1ccc3c(C4CCNCC4)c[nH]c3c1)OCO2` [Example 41], the figure is 98 ± 0.5%; as for `c1cc2ccc(NC3CCNCC3)nc2[nH]1` [Example 43], 48.4 ± 20.3%.
In the case of `c1cc2c(C3CCNCC3)c[nH]c2nc1Nc1ccc2c3c([nH]c2n1)CCCC3` [Example 44], the inhibition at 330 µM turned out to be 98.1 ± 0.3%.
On the same count and under the same terms, as for `c1nc2[nH]cc(C3CCNCC3)c2cc1Nc1ccc2c3c([nH]c2n1)CCCC3` [Example 45], the figure is 96.5 ± 3.7%; as for `c1cc2c(C3CCNCC3)c[nH]c2cc1Nc1ccc2c3c([nH]c2n1)CCC3` [Example 46], 99.4%.
The same measure, in the same setting: then `c1cc2[nH]cc(C3CCNCC3)c2cc1Nc1ccc2c3c([nH]c2n1)CCC3` [Example 47], with 99.1 ± 0.5%.
Still for that read-out and setting: as for `c1cc2c(C3CCNCC3)c[nH]c2cc1Nc1ccc2c(C3CCNCC3)c[nH]c2n1` [Example 48], the figure is 92 ± 0.8%; as for `FC(F)(F)c1ccc(Nc2ccc3c(C4CCNCC4)c[nH]c3c2)cn1` [Example 49], 81.9 ± 0.6%.
For the molecule `c1cc2c(C3CCNCC3)c[nH]c2nc1NCC1CCNCC1` [Example 50], the inhibition at 330 µM is 67.5 ± 0.1%.
Same read-out and setting: then `c1nc2[nH]cc(C3CCNCC3)c2cc1Nc1ccc2c3c([nH]c2n1)CCC3` [Example 51], with 95.5 ± 1%; and `Fc1ccc(Nc2ccc3c(C4CCNCC4)c[nH]c3c2)cc1F` [Example 52], with 83.6 ± 2.8%; and `Cn1cc(C2CCNCC2)c2cc(Nc3ccc4c(C5CCNCC5)cn(C)c4c3)ccc21` [Example 53], with 96 ± 2.1%.
The same measure, in the same setting: as for `CN(c1ccc2c(c1)c(C1CCNCC1)cn2C)c1ccc2c(C3CCNCC3)cn(C)c2c1` [Example 54], the figure is 96 ± 2.7%; as for `Fc1ccc(Nc2ccc3[nH]cc(C4CCNCC4)c3c2)cc1F` [Example 55], 75.8 ± 0.8%; as for `FC(F)(F)c1ccc(Nc2ccc3[nH]cc(C4CCNCC4)c3c2)cn1` [Example 56], 58.5 ± 2.7%.
Turning to `Cn1cc(C2CCNCC2)c2cc(Nc3ccc(F)c(F)c3)ccc21` [Example 57], the inhibition at 330 µM amounted to 85.1 ± 3.2%.
Turning to `Cn1cc(C2CCNCC2)c2cc(Nc3ccc4c5c([nH]c4n3)CCC5)ccc21` [Example 59], the inhibition at 330 µM came to 99 ± 0.3%.
Same read-out and setting: then `Fc1ccc(Nc2ccc3c(C4CCNCC4)c[nH]c3n2)cc1F` [Example 60], with 83.1 ± 3.4%; and `FC(F)(F)c1ccc(Nc2ccc3c(C4CCNCC4)c[nH]c3n2)cn1` [Example 61], with 83 ± 2.1%.
Still for that read-out and setting: then `c1cc(Nc2ccc3c(C4CCNCC4)c[nH]c3c2)cc(N2CCOCC2)c1` [Example 62], with 99.7 ± 0.3%.
Same read-out and setting: as for `c1cc2c(C3CCNCC3)c[nH]c2cc1Nc1ccc2c(C3CCNCC3)c[nH]c2c1` [Example 63], the figure is 91.5 ± 2.5%.
Regarding `CN1CCC(c2c[nH]c3ccc(Nc4ccc5c(C6CCNCC6)c[nH]c5c4)cc23)CC1` [Example 64], the inhibition at 330 µM stood at 95.4 ± 0.3%.
On to `c1cc2c(cc1Nc1ccc3c(C4CCNCC4)c[nH]c3c1)CCC2` [Example 65], for which the inhibition at 330 µM worked out at 95.9 ± 1.3%.
On the same count and under the same terms, as for `Cn1cc(C2CCNCC2)c2ccc(Nc3ccc4c(c3)OCO4)nc21` [Example 66], the figure is 85.1 ± 0.8%.
Same read-out and setting: as for `Cn1cc(C2CCNCC2)c2ccc(Nc3ccc(F)c(F)c3)nc21` [Example 67], the figure is 87.8 ± 4.2%.
